Data from ChEMBL document CHEMBL1154484, “A QSAR study for the cytotoxic activities of taxoids against macrophage (MPhi)-like cells” (Eur J Med Chem, 2009).

Legend:
[1] = Cytotoxicity against mouse J774.1 cells; assay type: cell-based
[2] = Cytotoxicity against mouse J7.DEF.3 cells; assay type: cell-based

In the case of `CC(=O)O[C@H]1C(=O)[C@@]2(C)[C@H]([C@H](OC(=O)c3ccccc3)[C@]3(O)C[C@H](OC(=O)[C@H](O)[C@@H](NC(=O)c4ccco4)c4ccccc4)C(C)=C1C3(C)C)[C@]1(OC(C)=O)CO[C@@H]1C[C@@H]2O`, the “log(1/C)” value [1] was 8.3 and the “log(1/C)” value [2] was 6.7.
In the case of `CC(=O)O[C@H]1C(=O)[C@@]2(C)[C@H]([C@H](OC(=O)c3ccccc3)[C@]3(O)C[C@H](OC(=O)[C@H](O)[C@@H](NC(=O)c4ccc(F)cc4)c4ccccc4)C(C)=C1C3(C)C)[C@]1(OC(C)=O)CO[C@@H]1C[C@@H]2O`, the “log(1/C)” value [1] was 7.68 and the “log(1/C)” value [2] was 7.77.
With `CC(=O)O[C@H]1C(=O)[C@@]2(C)[C@H]([C@H](OC(=O)c3ccccc3)[C@]3(O)C[C@H](OC(=O)[C@H](O)[C@@H](NC(=O)c4ccc(C)cc4)c4ccccc4)C(C)=C1C3(C)C)[C@]1(OC(C)=O)CO[C@@H]1C[C@@H]2O` the “log(1/C)” value [1] was 7.77 and the “log(1/C)” value [2] was 7.82.
For `CC(=O)O[C@H]1C(=O)[C@@]2(C)[C@H]([C@H](OC(=O)c3ccccc3)[C@]3(O)C[C@H](OC(=O)[C@H](O)[C@@H](NC(=O)Cc4ccccc4)c4ccccc4)C(C)=C1C3(C)C)[C@]1(OC(C)=O)CO[C@@H]1C[C@@H]2O`, the “log(1/C)” value [1] was 7.11 and the “log(1/C)” value [2] was 7.32.
For `CC(=O)O[C@H]1C(=O)[C@@]2(C)[C@H]([C@H](OC(=O)c3ccccc3)[C@]3(O)C[C@H](OC(=O)[C@H](O)[C@@H](NC(=O)c4ccc(Cl)cc4)c4ccccc4)C(C)=C1C3(C)C)[C@]1(OC(C)=O)CO[C@@H]1C[C@@H]2O`, the “log(1/C)” value [1] was 7.52 and the “log(1/C)” value [2] was 7.59.
With `CC(=O)O[C@H]1C(=O)[C@@]2(C)[C@H]([C@H](OC(=O)c3ccccc3)[C@]3(O)C[C@H](OC(=O)[C@H](O)[C@@H](NC(=O)c4ccc(C(C)(C)C)cc4)c4ccccc4)C(C)=C1C3(C)C)[C@]1(OC(C)=O)CO[C@@H]1C[C@@H]2O` the “log(1/C)” value [1] was 7.62 and the “log(1/C)” value [2] was 7.6.
For `CC(=O)O[C@H]1C(=O)[C@@]2(C)[C@H]([C@H](OC(=O)c3ccccc3)[C@]3(O)C[C@H](OC(=O)[C@H](O)[C@@H](NC(=O)c4ccc(-c5ccccc5)cc4)c4ccccc4)C(C)=C1C3(C)C)[C@]1(OC(C)=O)CO[C@@H]1C[C@@H]2O`, the “log(1/C)” value [1] was 7.31 and the “log(1/C)” value [2] was 6.85.
With `CC(=O)O[C@H]1C(=O)[C@@]2(C)[C@H]([C@H](OC(=O)c3ccccc3)[C@]3(O)C[C@H](OC(=O)[C@H](O)[C@@H](NC(=O)c4cccc5ccccc45)c4ccccc4)C(C)=C1C3(C)C)[C@]1(OC(C)=O)CO[C@@H]1C[C@@H]2O` the “log(1/C)” value [1] was 7.17 and the “log(1/C)” value [2] was 6.43.
For `CC(=O)O[C@H]1C(=O)[C@@]2(C)[C@H]([C@H](OC(=O)c3ccccc3)[C@]3(O)C[C@H](OC(=O)[C@H](O)[C@@H](NC(=O)c4cccs4)c4ccccc4)C(C)=C1C3(C)C)[C@]1(OC(C)=O)CO[C@@H]1C[C@@H]2O`, the “log(1/C)” value [1] was 8.7 and the “log(1/C)” value [2] was 7.8.
With `CC(=O)O[C@H]1C(=O)[C@@]2(C)[C@H]([C@H](OC(=O)c3ccccc3)[C@]3(O)C[C@H](OC(=O)[C@H](O)[C@@H](NC(=O)/C=C/c4ccccc4)c4ccccc4)C(C)=C1C3(C)C)[C@]1(OC(C)=O)CO[C@@H]1C[C@@H]2O` the “log(1/C)” value [1] was 7.52 and the “log(1/C)” value [2] was 7.11.
In the case of `CCCc1ccc(C(=O)N[C@@H](c2ccccc2)[C@@H](O)C(=O)O[C@H]2C[C@@]3(O)[C@@H](OC(=O)c4ccccc4)[C@@H]4[C@]5(OC(C)=O)CO[C@@H]5C[C@H](O)[C@@]4(C)C(=O)[C@H](OC(C)=O)C(=C2C)C3(C)C)cc1`, the “log(1/C)” value [1] was 7.74 and the “log(1/C)” value [2] was 7.77.
In the case of `CCc1ccc(C(=O)N[C@@H](c2ccccc2)[C@@H](O)C(=O)O[C@H]2C[C@@]3(O)[C@@H](OC(=O)c4ccccc4)[C@@H]4[C@]5(OC(C)=O)CO[C@@H]5C[C@H](O)[C@@]4(C)C(=O)[C@H](OC(C)=O)C(=C2C)C3(C)C)cc1`, the “log(1/C)” value [1] was 7.82 and the “log(1/C)” value [2] was 7.85.
With `COc1ccc(C(=O)N[C@@H](c2ccccc2)[C@@H](O)C(=O)O[C@H]2C[C@@]3(O)[C@@H](OC(=O)c4ccccc4)[C@@H]4[C@]5(OC(C)=O)CO[C@@H]5C[C@H](O)[C@@]4(C)C(=O)[C@H](OC(C)=O)C(=C2C)C3(C)C)cc1OC` the “log(1/C)” value [1] was 7.21 and the “log(1/C)” value [2] was 7.24.
For `COc1ccc(C(=O)N[C@@H](c2ccccc2)[C@@H](O)C(=O)O[C@H]2C[C@@]3(O)[C@@H](OC(=O)c4ccccc4)[C@@H]4[C@]5(OC(C)=O)CO[C@@H]5C[C@H](O)[C@@]4(C)C(=O)[C@H](OC(C)=O)C(=C2C)C3(C)C)c(OC)c1`, the “log(1/C)” value [1] was 7.12 and the “log(1/C)” value [2] was 7.08.
In the case of `CC(=O)O[C@H]1C(=O)[C@@]2(C)[C@H]([C@H](OC(=O)c3ccccc3)[C@]3(O)C[C@H](OC(=O)[C@H](O)[C@@H](NC(=O)c4ccc5ccccc5c4)c4ccccc4)C(C)=C1C3(C)C)[C@]1(OC(C)=O)CO[C@@H]1C[C@@H]2O`, the “log(1/C)” value [1] was 7.68 and the “log(1/C)” value [2] was 7.26.
For `CC(=O)O[C@H]1C(=O)[C@@]2(C)[C@H]([C@H](OC(=O)c3ccccc3)[C@]3(O)C[C@H](OC(=O)[C@H](O)[C@@H](NC(=O)c4ccc(F)cc4F)c4ccccc4)C(C)=C1C3(C)C)[C@]1(OC(C)=O)CO[C@@H]1C[C@@H]2O`, the “log(1/C)” value [1] was 7.59 and the “log(1/C)” value [2] was 7.6.
For `COc1ccc(C(=O)N[C@@H](c2ccccc2)[C@@H](O)C(=O)O[C@H]2C[C@@]3(O)[C@@H](OC(=O)c4ccccc4)[C@@H]4[C@]5(OC(C)=O)CO[C@@H]5C[C@H](O)[C@@]4(C)C(=O)[C@H](OC(C)=O)C(=C2C)C3(C)C)cc1`, the “log(1/C)” value [1] was 7.23 and the “log(1/C)” value [2] was 7.43.
In the case of `CC(=O)O[C@@]12CO[C@@H]1C[C@H](O)[C@@]1(C)C(=O)[C@H](O)C3=C(C)[C@@H](OC(=O)[C@H](O)[C@@H](NC(=O)OC(C)(C)C)c4ccccc4)C[C@@](O)([C@@H](OC(=O)c4ccccc4)[C@H]21)C3(C)C.O.O.O` [DOCETAXEL], the “log(1/C)” value [1] was 8.24 and the “log(1/C)” value [2] was 8.14.
In the case of `CC(=O)O[C@H]1C(=O)[C@@]2(C)[C@H]([C@H](OC(=O)c3ccccc3)[C@]3(O)C[C@H](OC(=O)[C@H](O)[C@@H](NC(=O)c4ccccc4)c4ccccc4)C(C)=C1C3(C)C)[C@]1(OC(C)=O)CO[C@@H]1C[C@@H]2O` [PACLITAXEL], the “log(1/C)” value [1] was 7.48 and the “log(1/C)” value [2] was 7.52.
